Measured values taken from patent US20120190635A1, “SELECTIVE OXIDATION OF C-H BONDS OF MODIFIED SUBSTRATES BY P450 MONOOXYGENASE” (THE REGENTS OF THE UNIVERSITY OF MICHIGAN, priority 2009, published 2012).
≈ marks a conversion by molar mass, not a printed value. Like-named read-outs stand apart in the source and are kept apart here.

How the values were obtained:
PikCD50N-RhFRED [1] = biological target: T1, PikCD50N-RhFRED (Streptomyces venezuelae, UniProt O87605, D50N); test: substrate binding assay, PikCD50N-RhFRED
Experimental: The unnatural cyclic carbolide substrate desosaminyl cyclododecane was synthesized to mimic the structure of the natural substrate YC-17 using a recently developed synthetic strategy (Anzai Y, et al. Functional analysis of MycG and MycCI, cytochrome P450 enzymes involved in biosyntheis of mycinamicin macrolide antibiotics. Chem. Biol. 2008 15:950-959), which was subsequently employed as a general approach to derivatize diverse alcohols with desosamine (FIG. 6). The standard assay contains 5 μM PikCD50N—RhFRED, 0.5 mM substrate, 2.5 mM NADPH, 0.25 Unit of glucose-6-phosphate dehydrogenase, and 5 mM glucose-6-phosphate for NADPH regeneration in 100 μl of reaction buffer (50 mM NaH2PO4, pH 7.3, 1 mM EDTA, 0.2 mM dithioerythritol, and 10% glycerol). The reaction was carried out at 30° C. for 3 h and terminated by extraction using 3×200 μl of CHCl3. The resulting organic extract was dried by N2 and redissolved in 120 μl of methanol. The subsequent LC-MS analysis was performed on a ThermoFinnigan LTQ linear ion-trap instrument (Department of Pharmacology, University of Michigan) equipped with electrospray source and Surveyor HPLC system by using an XBridge™ C18 3.5 μm 150 mm reverse-phase HPLC column under following conditions: mobile phase (A=deionized water+0.1% formic acid, B=acetonitrile+0.1% formic acid), 20% B for 3 min, 20-100% B over 25 min, 100% B for 5 min, 100-20% B over 1 min, 20% B for 15 min; flow rate, 0.21 ml/min The substrate binding assays were performed following the previous report (Li et al., supra).
The decreased binding affinity of desosaminyl cyclododecane could result from […], an entropic penalty upon binding due to high conformational freedom of the saturated ring system, […]) lack of hydrophobic interactions between the functional groups on the macrolactone ring of […] and PikC active site residues, and/or […]) loss of some specific interactions with desosamine as observed in the co-crystal structure with PikC. […] Due to enhanced substrate conversion and ease of use in the absence of expensive exogenous redox partners, PikCD50N—RhFRED was employed to hydroxylate carbolide desosaminyl cyclododecane and all other substrates.

PikCD50N-RhFRED [2] = biological target: T1, PikCD50N-RhFRED; type: biochemical; settings: for Number of products: Table 1
[3] = tested on: selected microbial targets; test: antibacterial activity, summary in words; type: cell-based
Experimental: All measurements were performed in duplicate.
The bioactivity of 8 was compared with its synthetic hydroxylated products. Unexpectedly, upon installation of a hydroxyl group at either the C7/C8 or C6/C9 positions (the four authentic standards, each of which contains a pair of diastereomers), the products lost activity. […] Further analysis of these carbolides, and direct investigation of their presumed binding to ribosomal targets will provide important insights into the impact of PikC-mediated regioselective hydroxylation for development of new small molecules for treatment of microbial pathogens and other human diseases.

[4] = tested on: Kocuria rhizophila ATCC9341; test: antibacterial MIC, microtiter dilution; settings: Kocuria rhizophila, ATCC9341, read-out: Minimal inhibitory concentration
[5] = tested on: Staphylococcus aureus ATCC6538P; test: antibacterial MIC, microtiter dilution; settings: Staphylococcus aureus, ATCC6538P, read-out: Minimal inhibitory concentration
[6] = tested on: Bacillus subtillis DHS5333; test: antibacterial MIC, microtiter dilution; settings: Bacillus, DHS5333, read-out: Minimal inhibitory concentration
Deinococcus radiodurans = test: antibacterial MIC, microtiter dilution; settings: 60 h
Escherichia. coli TolC = test: antibacterial MIC, microtiter dilution; settings: Escherichia coli, read-out: Minimal inhibitory concentration, E. coli W3110 TolC disruption mutant; Mueller Hinten
S. aureus NorA = test: antibacterial MIC, microtiter dilution; settings: Staphylococcus aureus, read-out: Minimal inhibitory concentration
Acinetobacter baumannii = test: antibacterial MIC, microtiter dilution; settings: read-out: Minimal inhibitory concentration
[7] = tested on: Multidrug resistant S. aureus (MRSA); test: antibacterial MIC, microtiter dilution; settings: Staphylococcus aureus, MRSA, read-out: Minimal inhibitory concentration
[8] = read-out: Minimal inhibitory concentration, Deinococcus radiodurans, Special media, 30° C.

T1 sequence (O87605 other isoform, or with tags, fused parts or gaps D50N): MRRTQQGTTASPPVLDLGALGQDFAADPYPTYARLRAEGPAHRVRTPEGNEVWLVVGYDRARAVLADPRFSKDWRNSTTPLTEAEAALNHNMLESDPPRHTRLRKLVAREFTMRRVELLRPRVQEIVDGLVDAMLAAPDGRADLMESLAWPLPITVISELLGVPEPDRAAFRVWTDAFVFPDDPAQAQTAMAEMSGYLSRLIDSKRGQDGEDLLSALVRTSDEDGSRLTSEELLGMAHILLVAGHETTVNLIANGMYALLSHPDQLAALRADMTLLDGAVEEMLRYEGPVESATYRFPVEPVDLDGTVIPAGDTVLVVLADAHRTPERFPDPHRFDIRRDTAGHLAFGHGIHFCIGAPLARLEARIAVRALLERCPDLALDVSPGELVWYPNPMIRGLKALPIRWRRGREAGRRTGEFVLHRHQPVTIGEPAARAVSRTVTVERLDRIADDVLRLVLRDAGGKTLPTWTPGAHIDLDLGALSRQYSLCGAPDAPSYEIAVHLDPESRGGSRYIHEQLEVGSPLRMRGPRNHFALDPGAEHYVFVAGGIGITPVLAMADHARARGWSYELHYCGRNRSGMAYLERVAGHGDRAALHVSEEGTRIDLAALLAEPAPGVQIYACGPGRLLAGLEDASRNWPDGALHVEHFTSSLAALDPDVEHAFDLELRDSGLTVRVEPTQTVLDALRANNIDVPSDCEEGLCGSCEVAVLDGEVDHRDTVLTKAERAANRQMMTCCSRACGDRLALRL

SMILES	Kd (PikCD50N-RhFRED [1])	share of monohydroxylated products oxidized at sites remote from desosamine (PikCD50N-RhFRED [2]; C7 and C6/C8 for the 12-membered ring, C7/C8 or C6/C9 for the 13-membered ring)	Number of products (PikCD50N-RhFRED [2]; PikCD50N-RhFRED)	antibacterial activity in words [3]	MIC [4]	MIC [5]	MIC [6]	MIC (Deinococcus radiodurans; [8])	MIC (Escherichia. coli TolC)	MIC (S. aureus NorA)	MIC (Acinetobacter baumannii)	MIC [7]	number of oxidized products (PikCD50N-RhFRED [2]; PikCD50N-RhFRED)	MIC (Deinococcus radiodurans; read-out: Minimal inhibitory concentration)
CC1CC(N(C)C)C(O)C(OC2CCCCCCCCCCCC2)O1 (stereo not shown) [Compound 8, 2-(Cyclotridecyloxy)-4-(dimethylamino)-6-methyltetrahydro-2H-pyran-3-ol]	218 µM	94%	6	displayed some inhibitory activities	50 µM (≈ 17.8 µg/mL)	400 µM (≈ 142 µg/mL)	200 µM (≈ 71.1 µg/mL)	100 µM (≈ 35.6 µg/mL)	50 µM (≈ 17.8 µg/mL)	200 µM (≈ 71.1 µg/mL)	> 400 µM	200 µM (≈ 71.1 µg/mL)	–	–
CC1CC(N(C)C)C(O)C(OC2CCCCCCCCCCCCC2)O1 (stereo not shown) [Compound 10, 2-(cyclotetradecyloxy)-4-(dimethylamino)-6-methyltetrahydro-2H-pyran-3-ol]	289 µM	–	6	displayed some inhibitory activities	50 µM (≈ 18.5 µg/mL)	> 400 µM	200 µM (≈ 73.9 µg/mL)	50 µM (≈ 18.5 µg/mL)	50 µM (≈ 18.5 µg/mL)	400 µM (≈ 148 µg/mL)	> 400 µM	400 µM (≈ 148 µg/mL)	–	–
CC1CC(N(C)C)C(O)C(OC2CCCCCCCCCCCCCC2)O1 (stereo not shown) [Compound 12, 2-(cyclopentadecyloxy)-4-(dimethylamino)-6-methyltetrahydro-2H-pyran-3-ol]	243 µM	–	9	displayed some inhibitory activities	50 µM (≈ 19.2 µg/mL)	200 µM (≈ 76.7 µg/mL)	100 µM (≈ 38.4 µg/mL)	50 µM (≈ 19.2 µg/mL)	50 µM (≈ 19.2 µg/mL)	100 µM (≈ 38.4 µg/mL)	> 400 µM	100 µM (≈ 38.4 µg/mL)	–	–
CCCCCCC#CCCOC1OC(C)CC(N(C)C)C1O (stereo not shown) [Compound 17, 2-(Dec-3-ynyloxy)-4-(dimethylamino)-6-methyltetrahydro-2H-pyran-3-ol]	2900 µM	–	5	–	> 400 µM	> 400 µM	> 400 µM	> 400 µM	> 400 µM	> 400 µM	> 400 µM	> 400 µM	–	–
CC1CC(N(C)C)C(O)C(Oc2ccc3ccc4cccc5ccc2c3c45)O1 (stereo not shown) [Compound 19, 4-(Dimethylamino)-6-methyl-2-(pyren-1-yloxy)tetrahydro-2H-pyran-3-ol]	> 5000 µM	–	1	–	25 µM (≈ 9.39 µg/mL)	25 µM (≈ 9.39 µg/mL)	6.2 µM (≈ 2.33 µg/mL)	–	25 µM (≈ 9.39 µg/mL)	25 µM (≈ 9.39 µg/mL)	100 µM (≈ 37.5 µg/mL)	25 µM (≈ 9.39 µg/mL)	single	25 µM (≈ 9.39 µg/mL)
